US6849596B1, “Regulatory/unfolding peptides of ezrin” (priority 1999, dated 2005)

Tests used:
[1] = system: IgG serum antibody response to Ovalbumin; assay: Adjuvant activity: IgG serum antibody response to Ovalbumin in mice; format: in vivo; conditions: for IgG response recorded as OD: 50 micrograms Ovalbumin, two weeks, sera 1 to 100; for IgG response recorded as OD then rebased relative to 100 for each control: control = 100
Protocol: Adjuvant Activity of Hepreceptor Peptides Enhancing the IgG Serum Antibody Response to Ovalbumin in Mice
The IgG response in mice two weeks after an injection of 50 micrograms of Ovalbumin plus various concentrations of different hepreceptor peptides was determined. IgG response was measured by Optical Density (OD) of a 1 to 100 dilution of mouse sera in the presence of Ovalbumin.
IgG response recorded as OD
IgG response recorded as OD then data rebased relative to 100 for each control

[2] = system: antibody forming cells against sheep erythocytes (SRBC); assay: Antibody forming cells against sheep erythocytes (SRBC) in mice, plaque count; format: in vivo; conditions: four days after SRBC, thirty mice per data point
Protocol: Activity of Hepreceptor Peptides Enhancing the Antibody-Dependent Cytotoxic Response in […] to Sheep Red Blood Cells (SRBC) in Mice
The influence of Hepreceptor peptides on the activation of antibody forming cells against sheep erythocytes (SRBC) in Mice (CBA-C57B1 Fi hybrids. 2 months old, weight 18-22 grams) was determined. Mice were first injected intraperitoneally using either 0.5 ml sterile saline as a control or Hepreceptor peptides in the same volume of saline. 30 minutes after the injection of Hepreceptor peptides, a cell suspension containing 5 million SRBC was administered intraperitoneally to each mouse. Four days after the immunisation, the mice were killed by cervical dislocation and the spleens were obtained aseptically. Each spleen was homogenised in 2 ml of Medium 199, then 100 microliters of this suspension was put into 1 ml of prepared agarose in Medium 199 (stored in water bath at 48° C.), SRBC suspension was added, resulting in a final concentration of 1% agarose. The Im1 of agarose-cell mixture was agitated then transferred to petri dish to set. When the agarose became solid, the petri dish was incubated for 1 hour at 37° C. then 0.5 ml of 1-in-20 diluted guinea pig serum in Medium 199 was added on top of agarose gel as a source of complement. The incubation was continued for another 1 hour. The dishes were then visualised using an 8×binocular microscope and the number of plaques counted (each plaque equivalent to one antibody secreting mouse spleen cell). The results were expressed both as the number of antibody secreting cells per one million nucleated spleen cells and the number of antibody secreting cells per whole spleen.
Averaged data (from thirty mice per data point) of the number of antibody forming cells per one million nucleated spleen cells. The data was re-based relative to 100 for each control group.

[3] = system: Salmonella typhimurium; assay: Protection of mice from acute Salmonella typhimurium infection; format: in vivo; conditions: control 0%
Protocol: Laboratory mice (CBAxC57B1 F1 hybrids) were split into groups of five which either received 0.5 ml saline or 0.5 ml saline plus various concentrations of different Hepreceptor peptides (1, 10 or 100 nanograms). 24 hours later the mice were acutely infected with Salmonella typhimurium (10,000 or 100,000 bacteria injected intraperitoneally per mouse). The percent of each group of mice surviving after 20 days was recorded (lethally infected control animals were dead within three days of infection).
Percent of mouse group surviving after 20 days infection

[4] = system: human Peripheral Blood Mononuclear Cells; assay: In vitro activation of human PBMC, tritiated thymidine incorporation; format: cell-based; conditions: three days, Control 370
Protocol: Peripheral Blood Mononuclear Cells (PBMC) were separated from the peripheral blood of a […] donor using the standard method of fractionation in a ficoll gradient. The PBMC were suspended in culture medium containing RPMI1640 medium plus 10% fetal calf serum, 1 mM L-glutamin and antibiotics (BM). The cell suspension was placed in wells of a 96 hole microwell plate for cell cultivation, (100 microliters of suspension containing 100,000 cells per well). […] The negative control well contained BM but no peptide. The plate was incubated at 37° C. for three days then radioactive ^3H thymidine was added to a final concentration of 1 microcurie per ml. The incorporation of ^3H thymidine into the DNA of the cells was measured using a betacounter using standard procedures. The experiment was repeated twice and the results expressed as an average of the two experiments in radioactive counts per minute.

[5] = IP injection 0.01 micrograms per mouse
[6] = IP injection 0.1 micrograms per mouse
[7] = IP injection 1 microgram per mouse
[8] = IP injection 10 micrograms per mouse
[9] = 10,000 bacteria per mouse, 1 nanogram peptide per mouse 24 hours before
[10] = 10,000 bacteria per mouse, 10 nanograms peptide per mouse
[11] = 10,000 bacteria per mouse, 100 nanograms peptide per mouse
[12] = 100,000 bacteria per mouse, 1 nanogram peptide per mouse
[13] = 100,000 bacteria per mouse, 10 nanograms peptide per mouse
[14] = 100,000 bacteria per mouse, 100 nanograms peptide per mouse

Substance | IgG response recorded as OD [1, 5] | IgG response recorded as OD then rebased relative to 100 for each control [1, 5] | IgG response recorded as OD [1, 6] | IgG response recorded as OD then rebased relative to 100 for each control [1, 6] | IgG response recorded as OD [1, 7] | IgG response recorded as OD then rebased relative to 100 for each control [1, 7] | IgG response recorded as OD [1, 8] | IgG response recorded as OD then rebased relative to 100 for each control [1, 8] | number of antibody forming cells per one million nucleated spleen cells, re-based relative to 100 for control [2, 7] | number of antibody forming cells per one million nucleated spleen cells, re-based relative to 100 for control [2, 8] | Percent of mouse group surviving after 20 days infection [3, 9] | Percent of mouse group surviving after 20 days infection [3, 10] | Percent of mouse group surviving after 20 days infection [3, 11] | Percent of mouse group surviving after 20 days infection [3, 12] | Percent of mouse group surviving after 20 days infection [3, 13] | Percent of mouse group surviving after 20 days infection [3, 14] | incorporation of 3H thymidine ([4]; Peptide 0.0001 micro g/ml) | incorporation of 3H thymidine ([4]; Peptide 0.0003 micro g/ml) | incorporation of 3H thymidine ([4]; Peptide 0.001 micro g/ml) | incorporation of 3H thymidine ([4]; Peptide 0.003 micro g/ml) | also measured
EREKE (Hepreceptor peptide) [Rupe1014] | 0.232 OD | 183 | 0.231 OD | 182 | 0.477 OD | 376 | 0.508 OD | 400 | 202 | 325 |  |  |  |  |  |  |  |  |  |  | 
EREKEQMMREKEEL (Hepreceptor peptide) [Rupe1024] | 0.250 OD | 164 | 0.262 OD | 172 | 0.489 OD | 322 | 0.445 OD | 293 | 401 | 397 | 40% | 40% | 40% | 0% | 20% | 40% |  |  |  |  | 
KEELMLRLQDYEE (Hepreceptor peptide) [Rupe2032] | 0.509 OD | 401 | 0.606 OD | 477 | 0.327 OD | 257 | 0.203 OD | 160 | 236 | 232 |  |  |  |  |  |  |  |  |  |  | 
RETVEREKE (Hepreceptor peptide) [Rupe614] |  |  |  |  |  |  |  |  |  |  |  |  |  |  |  |  | 464 radioactive counts per minute | 503 radioactive counts per minute | 550 radioactive counts per minute | 752 radioactive counts per minute | incorporation of 3H thymidine ([4]; Peptide 0.01 micro g/ml): 607 radioactive counts per minute; incorporation of 3H thymidine ([4]; Peptide 0.03 micro g/ml): 538 radioactive counts per minute; incorporation of 3H thymidine ([4]; Peptide 0.1 micro g/ml): 596 radioactive counts per minute; incorporation of 3H thymidine ([4]; Peptide 0.3 micro g/ml): 635 radioactive counts per minute; incorporation of 3H thymidine ([4]; Peptide 1 micro g/ml): 600 radioactive counts per minute; incorporation of 3H thymidine ([4]; Peptide 3 micro g/ml): 499 radioactive counts per minute; incorporation of 3H thymidine ([4]; Peptide 10 micro g/ml): 412 radioactive counts per minute
TEKKR (Hepreceptor peptide) [Rupe15] |  |  |  |  |  |  |  |  | 255 | 134 | 20% | 40% | 40% | 20% | 20% | 0% |  |  |  |  | 
TEKKRRETV (Hepreceptor peptide) [Rupe19] |  |  |  |  |  |  |  |  |  |  |  |  |  |  |  |  | 426 radioactive counts per minute | 602 radioactive counts per minute | 718 radioactive counts per minute | 756 radioactive counts per minute | incorporation of 3H thymidine ([4]; Peptide 0.01 micro g/ml): 545 radioactive counts per minute; incorporation of 3H thymidine ([4]; Peptide 0.03 micro g/ml): 586 radioactive counts per minute; incorporation of 3H thymidine ([4]; Peptide 0.1 micro g/ml): 537 radioactive counts per minute; incorporation of 3H thymidine ([4]; Peptide 0.3 micro g/ml): 563 radioactive counts per minute; incorporation of 3H thymidine ([4]; Peptide 1 micro g/ml): 509 radioactive counts per minute; incorporation of 3H thymidine ([4]; Peptide 3 micro g/ml): 502 radioactive counts per minute; incorporation of 3H thymidine ([4]; Peptide 10 micro g/ml): 517 radioactive counts per minute
